Laboratory results as given in patent US4927829A, “Heterocyclic compounds and antiulcer agents” (Shionogi & Co., Ltd., priority 1988, dated 1990).
Like-named read-outs stand apart in the source and are kept apart here.

Tests used:
stress ulcer = assay: Effect on stress ulcer (water-immersion restraint), oral; format: in vivo, SD rats; conditions: Rattus norvegicus, read-out: Inhibition rate (stress ulcer)
Description: Male SD rats (body weight: 260-290 g) which had fasted for 24 hours were placed in a wire net-restraint cage and immersed up to the breast in water at 23° C. After 7 hours, the animals were sacrificed, and the stomach were excised. […] The test compound was suspended in 5% gum arabic solution and orally administered 30 minutes before the stress load.
Cimetidine was used as control drug.

mice = assay: Acute toxicity test, intraperitoneal, mice; format: in vivo; conditions: n=5-6, up to 500 mg/kg
Description: From the above-mentioned results it is evident that the antiulcer activity of the compounds (I) of this invention was about ten times as potent as that of control drug.

[1] = oral, 30 minutes before stress load, male SD rats, 23° C. water immersion, 7 hours
[2] = 30 mg/kg, oral, 30 minutes before stress load, male SD rats, 23° C. water immersion, 7 hours

| SMILES | inhibition in vivo at 30 mg/kg (stress ulcer; po, 7 h) [%] | inhibition in vivo at 3 mg/kg (stress ulcer; [1]) [%] | inhibition in vivo at 10 mg/kg (stress ulcer; [1]) [%] | inhibition in vivo at 30 mg/kg (stress ulcer; [2]) [%] | acute toxicity (dead cases) (mice) | inhibition in vivo at 1 mg/kg (stress ulcer; 1 mg/kg, oral, 30 minutes before stress load, male SD rats, 23° C. water immersion, 7 hours) [%] |
| --- | --- | --- | --- | --- | --- | --- |
| CN/C(=N/CCSCc1nc[nH]c1C)NC#N [Cimetidine, reference compound] | 56 |  |  |  |  |  |
| O=C(Sc1cccn2c(=O)ccnc12)N1CCSCC1 [Example 7] |  | 46 | 77 | 71 | no dead case even at a dose of 500 mg/kg |  |
| O=C(Sc1cccn2c(=O)ccnc12)N1CCOCC1 [Example 9] |  | 33 | 66 | 80 |  |  |
| CCOC(=O)c1cnc2c(SC(=O)N3CCCCC3)cccn2c1=O [Example 13] |  | 34 | 70 | 81 |  |  |
| CCOC(=O)c1cnc2c(SC(=O)N3CCSC3)cccn2c1=O [Example 14] |  | 50 | 68 | 89 | no dead case even at a dose of 500 mg/kg | 45 |
| CCOC(=O)c1cnc2c(SC(=O)N3CCCC3)cccn2c1=O [Example 16] |  | 40 | 62 | 85 |  |  |
| O=C(Sc1cccn2c(=O)ccnc12)N1CCSC1 [Example 17] |  | 74 | 72 | 70 | no dead case even at a dose of 500 mg/kg |  |
| O=C(Sc1cccn2c(=O)ccnc12)N1CCCCC1 [Example 18] |  | 80 | 76 |  |  |  |
| O=C(Sc1cccn2c(=O)ccnc12)N1CCCC1 [Example 19] |  |  | 45 |  |  |  |
